Measured values reported in patent US20250302815A1, “PROTEIN TYROSINE PHOSPHATASE TARGETING LIGANDS” (CALICO LIFE SCIENCES LLC, priority 2021, published 2025).

Assays:
PTPN2 (B16F10.4 cells) = target: T1, PTPN2 (B16F10.4 cells) (Mus musculus, UniProt Q06180); assay: HiBiT Degradation B16F10.4 PTPN2; format: cell-based; conditions: 24.0 hours
T1 construct: HiBiT; host or cells: B16F10.4
T1 sequence (Q06180 1-406): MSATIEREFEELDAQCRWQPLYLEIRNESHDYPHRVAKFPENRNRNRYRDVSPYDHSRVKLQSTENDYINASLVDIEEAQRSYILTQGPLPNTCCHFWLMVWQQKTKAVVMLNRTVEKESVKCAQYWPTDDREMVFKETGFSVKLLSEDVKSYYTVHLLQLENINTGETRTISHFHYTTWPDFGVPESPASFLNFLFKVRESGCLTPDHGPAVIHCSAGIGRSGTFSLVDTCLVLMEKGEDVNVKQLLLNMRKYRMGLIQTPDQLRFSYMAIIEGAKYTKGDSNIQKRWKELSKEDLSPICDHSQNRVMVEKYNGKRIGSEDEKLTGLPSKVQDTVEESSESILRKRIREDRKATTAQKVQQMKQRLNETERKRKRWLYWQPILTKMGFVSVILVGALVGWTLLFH

[1] = target: T2, PTPN2 (HiBIT-PTPN2 in 293T.109 cells) (Homo sapiens, UniProt P17706); assay: HiBiT Degradation 293T.109 PTPN2 (Nano-Glo HiBiT Lytic Assay); format: cell-based; conditions: 24.0 hours
T2 construct: expressed in transfected cells; host or cells: 293T.109 (293T WT from ATCC)
T2 sequence (P17706 1-415): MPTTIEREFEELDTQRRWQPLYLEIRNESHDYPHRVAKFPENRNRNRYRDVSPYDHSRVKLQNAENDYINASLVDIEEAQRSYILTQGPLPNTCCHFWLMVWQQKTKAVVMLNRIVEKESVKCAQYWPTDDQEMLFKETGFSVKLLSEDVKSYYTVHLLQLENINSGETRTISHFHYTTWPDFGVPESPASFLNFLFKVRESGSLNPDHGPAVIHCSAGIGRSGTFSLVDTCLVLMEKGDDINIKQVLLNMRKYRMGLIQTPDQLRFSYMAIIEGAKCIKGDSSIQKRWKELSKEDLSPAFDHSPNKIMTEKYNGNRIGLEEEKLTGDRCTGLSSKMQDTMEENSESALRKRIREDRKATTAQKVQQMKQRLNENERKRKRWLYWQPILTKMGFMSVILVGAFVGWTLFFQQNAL
Outline: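 293T.109 cells with ectopic N-terminal HiBiT-tagged PTPN2 (5000/well) exposed to compounds for 24 h at 37 °C, 5% CO2; 11-point half-log titration from 10 μM top, duplicates. Remaining HiBiT-PTPN2 read as luminescence with Nano-Glo HiBiT lytic reagent, normalised to untreated cells (0%) and reagent-free wells.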

For CC1(C)C[C@@H](Nc2cccc(-c3sc(C(=O)O)c(OCC(=O)O)c3Cl)c2)CCN1S(=O)(=O)Cc1cccc(NC(=O)CCN2CCC(Nc3cccc4c3CN(C3CCC(=O)NC3=O)C4=O)CC2)c1 (stereo partly drawn) [Example 46, 3-(carboxymethoxy)-4-chloro-5-(3-(((4S)-1-((3-(3-(4-((2-(2,6-dioxopiperidin-3-yl)-1-oxoisoindolin-4-yl)amino)piperidin-1-yl)propanamido)benzyl)sulfonyl)-2,2-dimethylpiperidin-4-yl)amino)phenyl)thiophene-2-carboxylic acid], the DC50 (PTPN2 (B16F10.4 cells)) was 200 to 1000 nM and the DC50 [1] was under 50 nM.
O=C(O)COc1c(C(=O)O)sc(-c2cccc(NC3CCN(S(=O)(=O)Cc4cccc(NC(=O)CCc5ccc6c(c5)CN(C5CCC(=O)NC5=O)C6=O)c4)CC3)c2)c1Cl (centres unmarked) [Example 47] showed a DC50 (PTPN2 (B16F10.4 cells)) of 200 to 1000 nM and a DC50 [1] of 200 to 1000 nM.
CC1(C)C[C@@H](Nc2cccc(-c3sc(C(=O)O)c(OCC(=O)O)c3Cl)c2)CCN1S(=O)(=O)Cc1cccc(NC(=O)C2CCN(C(=O)CNc3cccc4c3CN(C3CCC(=O)NC3=O)C4=O)CC2)c1 (stereo partly drawn) [Example 48, 3-(carboxymethoxy)-4-chloro-5-(3-(((4S)-1-((3-(1-((2-(2,6-dioxopiperidin-3-yl)-1-oxoisoindolin-4-yl)glycyl)piperidine-4-carboxamido)benzyl)sulfonyl)-2,2-dimethylpiperidin-4-yl)amino)phenyl)thiophene-2-carboxylic acid] was tested, and the DC50 (PTPN2 (B16F10.4 cells)) was 200 to 1000 nM and the DC50 [1] was under 50 nM.
For Cn1c(=O)n(C2CCC(=O)NC2=O)c2ccc(CCC(=O)Nc3cccc(CS(=O)(=O)N4CCC(Nc5cccc(-c6sc(C(=O)O)c(OCC(=O)O)c6Cl)c5)CC4)c3)cc21 (centres unmarked) [Example 49, 3-(carboxymethoxy)-4-chloro-5-(3-((1-((3-(3-(1-(2,6-dioxopiperidin-3-yl)-3-methyl-2-oxo-2,3-dihydro-1H-benzo[d]imidazol-5-yl)propanamido)benzyl)sulfonyl)piperidin-4-yl)amino)phenyl)thiophene-2-carboxylic acid], the DC50 (PTPN2 (B16F10.4 cells)) was 200 to 1000 nM and the DC50 [1] was 200 to 1000 nM.
O=C(O)COc1c(C(=O)O)sc(-c2cccc(NC3CCN(S(=O)(=O)Cc4cccc(NC(=O)CCN5CCC(Nc6cccc7c6CN(C6CCC(=O)NC6=O)C7=O)CC5)c4)CC3)c2)c1Cl (centres unmarked) [Example 50, 3-(carboxymethoxy)-4-chloro-5-[3-[[1-[[3-[3-[4-[[2-(2,6-dioxo-3-piperidyl)-1-oxo-isoindolin-4-yl]amino]-1-piperidyl]propanoylamino]phenyl]methylsulfonyl]-4-piperidyl]amino]phenyl]thiophene-2-carboxylic acid] gave a DC50 (PTPN2 (B16F10.4 cells)) of at least 1000 nM and a DC50 [1] of under 50 nM.
Work on Cn1c(=O)n(C2CCC(=O)NC2=O)c2ccc(C3CCN(C(=O)Nc4cccc(CS(=O)(=O)N5CCC(Nc6cccc(-c7sc(C(=O)O)c(OCC(=O)O)c7Cl)c6)CC5)c4)CC3)cc21 (centres unmarked) [Example 51, 3-(carboxymethoxy)-4-chloro-5-[3-[[1-[[3-[[4-[1-(2,6-dioxo-3-piperidyl)-3-methyl-2-oxo-benzimidazol-5-yl]piperidine-1-carbonyl]amino]phenyl]methylsulfonyl]-4-piperidyl]amino]phenyl]thiophene-2-carboxylic acid] yielded a DC50 (PTPN2 (B16F10.4 cells)) of 50 to 200 nM and a DC50 [1] of 50 to 200 nM.
Cn1c(=O)n(C2CCC(=O)NC2=O)c2cccc(C3CCN(C(=O)Nc4cccc(CS(=O)(=O)N5CCC(Nc6cccc(-c7sc(C(=O)O)c(OCC(=O)O)c7Cl)c6)CC5)c4)CC3)c21 (centres unmarked) [Example 52, 3-(carboxymethoxy)-4-chloro-5-[3-[[1-[[3-[[4-[1-(2,6-dioxo-3-piperidyl)-3-methyl-2-oxo-benzimidazol-4-yl]piperidine-1-carbonyl]amino]phenyl]methylsulfonyl]-4-piperidyl]amino]phenyl]thiophene-2-carboxylic acid] showed a DC50 (PTPN2 (B16F10.4 cells)) of 200 to 1000 nM and a DC50 [1] of 200 to 1000 nM.
In the case of Cn1c(=O)n(C2CCC(=O)NC2=O)c2cccc(CCC(=O)Nc3cccc(CS(=O)(=O)N4CCC(Nc5cccc(-c6sc(C(=O)O)c(OCC(=O)O)c6Cl)c5)CC4)c3)c21 (centres unmarked) [Example 53], the DC50 (PTPN2 (B16F10.4 cells)) is reported as 200 to 1000 nM and the DC50 [1] is reported as 50 to 200 nM.
O=C(O)COc1c(C(=O)O)sc(-c2cccc(NC3CCN(S(=O)(=O)Cc4cccc(NC(=O)CN5CCC(n6nc(C7CCC(=O)NC7=O)c7ccccc76)CC5)c4)CC3)c2)c1Cl (centres unmarked) [Example 54] showed a DC50 (PTPN2 (B16F10.4 cells)) of at least 1000 nM and a DC50 [1] of at least 1000 nM.
Work on Cn1c(=O)n(C2CCC(=O)NC2=O)c2ccc(C3CCN(CC(=O)Nc4cccc(CS(=O)(=O)N5CCC(Nc6cccc(-c7sc(C(=O)O)c(OCC(=O)O)c7Cl)c6)CC5)c4)CC3)cc21 (centres unmarked) [Example 55, 3-(carboxymethoxy)-4-chloro-5-[3-[[1-[[3-[[2-[4-[1-(2,6-dioxo-3-piperidyl)-3-methyl-2-oxo-benzimidazol-5-yl]-1-piperidyl]acetyl]amino]phenyl]methylsulfonyl]-4-piperidyl]amino]phenyl]thiophene-2-carboxylic acid] yielded a DC50 (PTPN2 (B16F10.4 cells)) of 50 to 200 nM and a DC50 [1] of 50 to 200 nM.
For CC1(C)C[C@@H](Nc2cccc(-c3sc(C(=O)O)c(OCC(=O)O)c3Cl)c2)CCN1S(=O)(=O)Cc1cccc(NC(=O)CCN2CCC(Oc3cccc4c3CN(C3CCC(=O)NC3=O)C4=O)CC2)c1 (some centres unmarked) [Example 56], the DC50 (PTPN2 (B16F10.4 cells)) was at least 1000 nM and the DC50 [1] was at least 1000 nM.
CC1(C)C[C@@H](Nc2cccc(-c3sc(C(=O)O)c(OCC(=O)O)c3Cl)c2)CCN1S(=O)(=O)Cc1cccc(NC(=O)C2CN(C(=O)CNc3ccc4c(c3)CN(C3CCC(=O)NC3=O)C4=O)C2)c1 (stereo partly drawn) [Example 57, 3-(carboxymethoxy)-4-chloro-5-[3-[[(4S)-1-[[3-[[1-[2-[[2-(2,6-dioxo-3-piperidyl)-1-oxo-isoindolin-5-yl]amino]acetyl]azetidine-3-carbonyl]amino]phenyl]methylsulfonyl]-2,2-dimethyl-4-piperidyl]amino]phenyl]thiophene-2-carboxylic acid] gave a DC50 (PTPN2 (B16F10.4 cells)) of at least 1000 nM and a DC50 [1] of 50 to 200 nM.
CC1(C)C[C@@H](Nc2cccc(-c3sc(C(=O)O)c(OCC(=O)O)c3Cl)c2)CCN1S(=O)(=O)Cc1cccc(NC(=O)C2CCN(C(=O)COc3cccc4c3C(=O)N(C3CCC(=O)NC3=O)C4=O)CC2)c1 (stereo partly drawn) [Example 58, 3-(carboxymethoxy)-4-chloro-5-[3-[[(4S)-1-[3-[[1-[2-[[2-(2,6-dioxo-3-piperidyl)-1,3-dioxo-isoindolin-4-yl]oxyacetyl]piperidine-4-carbonyl]amino]phenyl]methylsulfonyl]-2,2-dimethyl-4-piperidyl]amino]phenyl]thiophene-2-carboxylic acid] gave a DC50 (PTPN2 (B16F10.4 cells)) of at least 1000 nM and a DC50 [1] of 200 to 1000 nM.
In the case of O=C(O)COc1c(C(=O)O)sc(-c2cccc(NC3CCN(S(=O)(=O)Cc4cccc(NC(=O)N5CCC(Nc6cccc7c6CN(C6CCC(=O)NC6=O)C7=O)CC5)c4)CC3)c2)c1Cl (centres unmarked) [Example 59, 3-(carboxymethoxy)-4-chloro-5-[3-[[1-[[3-[[4-[[2-(2,6-dioxo-3-piperidyl)-1-oxo-isoindolin-4-yl]amino]piperidine-1-carbonyl]amino]phenyl]methylsulfonyl]-4-piperidyl]amino]phenyl]thiophene-2-carboxylic acid], the DC50 (PTPN2 (B16F10.4 cells)) is reported as 200 to 1000 nM and the DC50 [1] is reported as 200 to 1000 nM.
Molecule Cn1c(=O)n(C2CCC(=O)NC2=O)c2ccc(C3CCN(C(=O)Nc4cccc(CS(=O)(=O)N5CC[C@H](Nc6cccc(-c7sc(C(=O)O)c(OCC(=O)O)c7Cl)c6)CC5(C)C)c4)CC3)cc21 (stereo partly drawn) [Example 60, 3-(carboxymethoxy)-4-chloro-5-(3-(((4S)-1-((3-(4-(1-(2,6-dioxopiperidin-3-yl)-3-methyl-2-oxo-2,3-dihydro-1H-benzo[d]imidazol-5-yl)piperidine-1-carboxamido)benzyl)sulfonyl)-2,2-dimethylpiperidin-4-yl)amino)phenyl)thiophene-2-carboxylic acid] has a DC50 (PTPN2 (B16F10.4 cells)) of under 50 nM and a DC50 [1] of 50 to 200 nM.
CC1(C)C[C@@H](Nc2cccc(-c3sc(C(=O)O)c(OCC(=O)O)c3Cl)c2)CCN1S(=O)(=O)Cc1cccc(NC(=O)C2CCN(C(=O)CCc3cccc4c3CN(C3CCC(=O)NC3=O)C4=O)CC2)c1 (stereo partly drawn) [Example 61, 3-(carboxymethoxy)-4-chloro-5-(3-(((4S)-1-((3-(1-(3-(2-(2,6-dioxopiperidin-3-yl)-1-oxoisoindolin-4-yl)propanoyl)piperidine-4-carboxamido)benzyl)sulfonyl)-2,2-dimethylpiperidin-4-yl)amino)phenyl)thiophene-2-carboxylic acid] gave a DC50 (PTPN2 (B16F10.4 cells)) of 200 to 1000 nM and a DC50 [1] of 200 to 1000 nM.
